Data as given in patent US11040981B2, “Pyrrolotriazine compounds and methods of inhibiting TAM kinases” (Syros Pharmaceuticals, Inc., priority 2017, dated 2021).
pIC50: −log10 of the molar value.

Legend:
FLT3 = target: T1, FLT3 (Homo sapiens, UniProt P36888); assay: TR-FRET kinase activity assay, FLT3; format: biochemical; settings: ATP at Km, 60 minutes
T1 sequence (P36888 27-993): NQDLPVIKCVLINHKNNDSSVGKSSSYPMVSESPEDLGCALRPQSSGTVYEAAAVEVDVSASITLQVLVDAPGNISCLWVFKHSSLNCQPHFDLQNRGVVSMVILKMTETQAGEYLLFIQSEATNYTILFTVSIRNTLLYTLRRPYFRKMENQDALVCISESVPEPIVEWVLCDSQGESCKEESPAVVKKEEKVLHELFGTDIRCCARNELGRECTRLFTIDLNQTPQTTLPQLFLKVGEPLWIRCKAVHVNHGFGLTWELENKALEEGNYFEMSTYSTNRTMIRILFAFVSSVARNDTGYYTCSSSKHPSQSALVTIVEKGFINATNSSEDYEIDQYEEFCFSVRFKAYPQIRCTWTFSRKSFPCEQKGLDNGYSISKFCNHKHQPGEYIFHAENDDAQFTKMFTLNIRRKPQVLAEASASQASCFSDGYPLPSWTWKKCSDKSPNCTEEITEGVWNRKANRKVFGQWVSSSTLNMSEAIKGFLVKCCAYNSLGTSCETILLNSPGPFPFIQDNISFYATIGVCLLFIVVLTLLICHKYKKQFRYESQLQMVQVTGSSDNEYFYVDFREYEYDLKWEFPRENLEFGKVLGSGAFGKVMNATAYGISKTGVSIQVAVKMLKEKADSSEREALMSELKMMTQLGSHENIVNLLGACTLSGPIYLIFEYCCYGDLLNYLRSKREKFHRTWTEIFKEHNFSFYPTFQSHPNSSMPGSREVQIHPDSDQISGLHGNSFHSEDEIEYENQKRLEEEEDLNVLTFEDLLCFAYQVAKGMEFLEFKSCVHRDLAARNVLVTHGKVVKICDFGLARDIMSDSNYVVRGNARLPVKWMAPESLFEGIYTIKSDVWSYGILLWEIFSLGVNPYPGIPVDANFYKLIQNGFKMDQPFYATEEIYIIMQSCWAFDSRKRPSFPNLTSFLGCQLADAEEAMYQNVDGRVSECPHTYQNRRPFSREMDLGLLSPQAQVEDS
Procedure: (§1) IC50 values for compound inhibition of AXL, FLT3, MERTK and TYRO3 activity were determined by using a TR-FRET activity assay. A polypeptide substrate with a fluorescent label is phosphorylated on a tyrosine by each enzyme, where the now phosphorylated product is bound by a Europium-labeled antibody specific to that phosphorylation site. The proximity between the antibody and the substrate gives a signal known as TR-FRET. As the enzyme is inhibited by compound, less phosphorylated peptide product is made causing a decrease in overall signal.
(§2) Activity assays were performed in a 384-well, small volume, black microplates in an active enzyme volume of 10 μL and final developed volume of 20 μL. Final assay conditions are 50 mM HEPES pH 7.5, 10 mM MgCl2, 1 mM EGTA, 0.01% Brij 35 and 1 mM DTT all at RT. Enzyme, substrate labeled peptide and compound are mixed, and then the reaction is initiated with the addition of ATP at Km concentration for each enzyme. The reaction is allowed to run 60 minutes and then quenched with a 12.5 mM EDTA (ethylenediamine tetraacetic acid) solution. The plate is then developed with the addition of Europium labeled antibody for a final volume of 20 μL and is then incubated for 30 minutes in darkness. Plates are read in a Pherastar plate reader. Data is analyzed in GraphPad PRISM.
(§3) The results of these assays are shown in Table 1, below, wherein “No.” designates compound number (FIG. 1); “A” represents a value of ≤100 nM; “B” a value of >100 nM and ≤1 μM; “C” a value of >1 μM and ≤10 μM; “D” a value of >10 μM; “ND” is not determined. The ratio of Mer to FLT3 is calculated as follows: FLT3 IC50/Mer IC50. “+” represents a ratio of >2.0 and <10; “++” represents a ratio of between 10 and 100; and “+++” represents a ratio of >100.

AXL = target: T2, AXL (Homo sapiens, UniProt P30530); assay: TR-FRET kinase activity assay, AXL; format: biochemical; settings: ATP at Km, 60 minutes
T2 sequence (P30530 26-894): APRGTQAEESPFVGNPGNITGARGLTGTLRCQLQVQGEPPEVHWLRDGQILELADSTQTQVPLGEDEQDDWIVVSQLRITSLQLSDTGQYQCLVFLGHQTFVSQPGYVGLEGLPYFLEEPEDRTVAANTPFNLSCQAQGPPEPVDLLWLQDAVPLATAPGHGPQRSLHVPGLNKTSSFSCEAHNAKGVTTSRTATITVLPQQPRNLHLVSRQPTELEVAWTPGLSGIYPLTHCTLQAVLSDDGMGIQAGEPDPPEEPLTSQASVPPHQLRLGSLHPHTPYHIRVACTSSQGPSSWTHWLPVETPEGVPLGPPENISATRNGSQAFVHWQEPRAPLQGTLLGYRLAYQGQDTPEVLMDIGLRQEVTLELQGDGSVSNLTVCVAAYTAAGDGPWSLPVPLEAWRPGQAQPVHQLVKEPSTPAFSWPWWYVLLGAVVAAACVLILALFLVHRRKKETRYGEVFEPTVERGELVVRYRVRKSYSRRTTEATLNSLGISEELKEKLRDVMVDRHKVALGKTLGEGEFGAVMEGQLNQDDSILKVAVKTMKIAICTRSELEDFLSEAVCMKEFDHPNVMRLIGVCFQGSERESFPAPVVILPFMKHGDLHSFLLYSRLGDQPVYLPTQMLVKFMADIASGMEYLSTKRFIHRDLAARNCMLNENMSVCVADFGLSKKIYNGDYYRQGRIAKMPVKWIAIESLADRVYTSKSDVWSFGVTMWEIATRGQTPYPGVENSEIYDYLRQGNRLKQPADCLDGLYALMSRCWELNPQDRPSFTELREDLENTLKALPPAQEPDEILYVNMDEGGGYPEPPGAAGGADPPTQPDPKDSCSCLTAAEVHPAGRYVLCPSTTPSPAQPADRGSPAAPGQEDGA
Procedure: as §1, §2, §3

pIC50 (FLT3) | pIC50 (AXL) | SMILES
≥ 7.00 | ≥ 7.00 | Cc1cc(-c2cc([C@H]3CC[C@H](O)CC3)n3nc(N[C@@H](C)CC(F)(F)F)ncc23)ccn1 [Compound 213]
5.00 to 6.00 | 5.00 to 6.00 | COCC(C)Nc1ncc2c(-c3cccc(C)n3)cc(C3CCC(O)CC3)n2n1 (centres unmarked) [Compound 253]
5.00 to 6.00 | ≥ 7.00 | COC[C@H](C)Nc1ncc2c(-c3cnn(CC(C)(C)O)c3)cc([C@H]3CC[C@H](O)CC3)n2n1 [Compound 264]
5.00 to 6.00 | 6.00 to 7.00 | COCC[C@@H](C)Nc1ncc2c(-c3ccc(CN4CCOCC4)cc3)cc([C@H]3CC[C@H](O)CC3)n2n1 [Compound 212]
5.00 to 6.00 | 6.00 to 7.00 | COC[C@H](C)Nc1ncc2c(-c3cncc(C)c3)cc([C@H]3CC[C@H](O)CC3)n2n1 [Compound 231]
≥ 7.00 | ≥ 7.00 | C[C@@H](CC(F)(F)F)Nc1ncc2c(-c3cnn(C4COC4)c3)cc([C@H]3CC[C@H](O)CC3)n2n1 [Compound 269]
≥ 7.00 | ≥ 7.00 | COC[C@H](C)Nc1ncc2c(-c3ccc(N4CCN(C)CC4)nc3)cc([C@H]3CC[C@H](O)CC3)n2n1 [Compound 271]
6.00 to 7.00 | ≥ 7.00 | COC[C@H](C)Nc1ncc2c(-c3ccc(C(=O)N4CCS(=O)(=O)CC4)cc3)cc([C@H]3CC[C@H](O)CC3)n2n1 [Compound 197]
6.00 to 7.00 | 6.00 to 7.00 | COC[C@H](C)Nc1ncc2c(-c3cnn(CC(=O)N(C)C)c3)cc([C@H]3CC[C@H](O)CC3)n2n1 [Compound 238]
5.00 to 6.00 | 6.00 to 7.00 | COC[C@H](C)Nc1ncc2c(-c3cncc(F)c3)cc([C@H]3CC[C@H](O)CC3)n2n1 [Compound 195]
≥ 7.00 | ≥ 7.00 | C[C@@H](CC(F)(F)F)Nc1ncc2c(-c3ccc(CN4CCOCC4)cc3)cc([C@H]3CC[C@H](O)CC3)n2n1 [Compound 203]
5.00 to 6.00 | 6.00 to 7.00 | COC[C@H](C)Nc1ncc2c(-c3cncc(C(N)=O)c3)cc([C@H]3CC[C@H](O)CC3)n2n1 [Compound 247]
6.00 to 7.00 | 6.00 to 7.00 | CCCCC[C@H](C)Nc1ncc2c([C@H]3CC[C@H](C(=O)N4CCOCC4)CC3)cc([C@H]3CC[C@H](O)CC3)n2n1 [Compound 108]
5.00 to 6.00 | 6.00 to 7.00 | COC[C@H](C)Nc1ncc2c(-c3cnn(C(C)(C)C)c3)cc([C@H]3CC[C@H](O)CC3)n2n1 [Compound 206]
6.00 to 7.00 | 6.00 to 7.00 | COC[C@H](C)Nc1ncc2c(-c3cnn(CC(=O)N4CCN(C)CC4)c3)cc([C@H]3CC[C@H](O)CC3)n2n1 [Compound 240]
6.00 to 7.00 | 6.00 to 7.00 | COC[C@H](C)Nc1ncc2c(-c3cccc(CN4CCN(C)CC4)c3)cc([C@H]3CC[C@H](O)CC3)n2n1 [Compound 218]
≥ 7.00 | ≥ 7.00 | COCCn1cc(-c2cc([C@H]3CC[C@H](O)CC3)n3nc(N[C@@H](C)CC(F)(F)F)ncc23)cn1 [Compound 262]

pIC50 (FLT3) | pIC50 (AXL) | SMILES
≥ 7.00 | ≥ 7.00 | CC(CCOC(F)F)Nc1ncc2c(-c3ccc(CN4CCOCC4)cc3)cc(C3CCC(O)CC3)n2n1 (centres unmarked) [Compound 255]
5.00 to 6.00 | ≥ 7.00 | COCC(C)Nc1ncc2c(-c3ccc4nccn4c3)cc(C3CCC(O)CC3)n2n1 (centres unmarked) [Compound 193]
5.00 to 6.00 | 6.00 to 7.00 | COC[C@H](C)Nc1ncc2c(-c3ccc(C)cn3)cc([C@H]3CC[C@H](O)CC3)n2n1 [Compound 258]
5.00 to 6.00 | 6.00 to 7.00 | COC[C@H](C)Nc1ncc2c(-c3ccc(C(=O)NC(C)C)nc3)cc([C@H]3CC[C@H](O)CC3)n2n1 [Compound 228, 5-(7-((1r,4S)-4-hydroxycyclohexyl)-2-(((S)-1-methoxypropan-2-yl)amino)pyrrolo[2,1-f][1,2,4]triazin-5-yl)-N-isopropylpicolinamide]
≥ 7.00 | ≥ 7.00 | CNC(=O)c1ccc(-c2cc([C@H]3CC[C@H](O)CC3)n3nc(N[C@@H](C)CC(F)(F)F)ncc23)cn1 [Compound 263]
6.00 to 7.00 | ≥ 7.00 | COC[C@H](C)Nc1ncc2c(-c3ccc(C(=O)N4CCCC4)cc3)cc([C@H]3CC[C@H](O)CC3)n2n1 [Compound 196]
6.00 to 7.00 | 6.00 to 7.00 | COC[C@H](C)Nc1ncc2c(-c3cnn(CC(=O)N[C@H]4CCOC4)c3)cc([C@H]3CC[C@H](O)CC3)n2n1 [Compound 237]
6.00 to 7.00 | ≥ 7.00 | COC[C@H](C)Nc1ncc2c(-c3cnn(CC(=O)N4CCCC4)c3)cc([C@H]3CC[C@H](O)CC3)n2n1 [Compound 239]
6.00 to 7.00 | ≥ 7.00 | COC[C@H](C)Nc1ncc2c(-c3ccnc(N4CCOCC4)c3)cc([C@H]3CC[C@H](O)CC3)n2n1 [Compound 259]
5.00 to 6.00 | 6.00 to 7.00 | COC[C@H](C)Nc1ncc2c(-c3cncc(CN4CCOCC4)c3)cc([C@H]3CC[C@H](O)CC3)n2n1 [Compound 219]
5.00 to 6.00 | 6.00 to 7.00 | COC[C@H](C)Nc1ncc2c(-c3cncc(C(=O)N4CCOCC4)c3)cc([C@H]3CC[C@H](O)CC3)n2n1 [Compound 233]
6.00 to 7.00 | ≥ 7.00 | CCCCC[C@H](C)Nc1ncc2c(NC3CCN(C)CC3)cc([C@H]3CC[C@H](O)CC3)n2n1 [Compound 107]
5.00 to 6.00 | 6.00 to 7.00 | COC[C@H](C)Nc1ncc2c(-c3cccc4c3CNC4=O)cc([C@H]3CC[C@H](O)CC3)n2n1 [Compound 210]
6.00 to 7.00 | ≥ 7.00 | COC[C@H](C)Nc1ncc2c(-c3ccnc(N4CCN(C)CC4)c3)cc([C@H]3CC[C@H](O)CC3)n2n1 [Compound 256]
5.00 to 6.00 | 6.00 to 7.00 | COC[C@H](C)Nc1ncc2c(-c3cnn(CC(=O)NC(C)C)c3)cc([C@H]3CC[C@H](O)CC3)n2n1 [Compound 235]
5.00 to 6.00 | 6.00 to 7.00 | COC[C@H](C)Nc1ncc2c(-c3cncc(C(=O)N4CCN(C)CC4)c3)cc([C@H]3CC[C@H](O)CC3)n2n1 [Compound 234]
≥ 7.00 | ≥ 7.00 | C[C@@H](COC(F)F)Nc1ncc2c(-c3cnn(C4COC4)c3)cc([C@H]3CC[C@H](O)CC3)n2n1 [Compound 270]
